Assays:
[1] = molecular target: human C5a receptor (C5aR) (Homo sapiens (Human), UniProt P21730); assay: Inhibition of C5a-C5aR binding (biotinylated human C5a, U937/C5aR cells, FACS)
Experimental: U937 cells were originally obtained from the American Type Culture Collection (ATCC) and transfected with human C5a receptor (C5aR). U937/C5aR cells were cultured at 37° C., 5% CO2 in RPMI1640 (Gibco) supplemented with 10% FBS (Gibco) and 350 µg/ml Geneticin (Gibco) and passaged every 3 days to maintain the density range from […] to 2×10^6 cells/ml.
Human C5a biotinylation was performed according to the procedure provided by manufacturer (Thermo Scientific, A39257). 10 mM solution of Sulfo-NHS-LC-Biotin was prepared by adding 180μl ultrapure H2O to the 1 mg vial immediately. 12 μl 10 mM biotin reagent was added to […] human C5a solution, gently pipetted for 3 seconds, and incubated on ice for 2 hours. Amicon ultra-0.5 centrifuge filter device (Millipore, UFC5003BK) was pre-rinsed with Milli-Q H2O, centrifuged at 14000 g for 5 min immediately before use. Up to […] sample (diluted by PBS) was added to the device and capped. The device was spinned at 14000 g for approximately 5 min. 250 μl PBS was added to the filter device, spinned at 14000 g for 5 min, and repeatedly washed 6 times. The filter device was separated from the microcentrifuge tube and placed upside down in a clean microcentrifuge tube, spinned for 2 min at 1000 g to transfer the concentrated sample from the device to the tube.
U937/C5aR cells were collected and washed twice by PBS, cells were suspended in PBS+0.1% BSA buffer at the density of 3×10^6 cells/ml. 100 μl cell suspension was added to a 96 well microplate. 50 μl compound diluted in assay buffer and 50 μl biotinylated ligand human C5a (30 nM) were added to corresponding wells in order and the plate was incubated on ice for 120 min and then centrifuged at 1000 rpm for 3-5 min at 4° C. Supernatant was removed and cells were washed by pre-cold PBS twice. 100 μl FITC conjugated streptavidin was added to cells, incubated on ice for another 30 min, and then centrifuged at 1000 rpm for 3-5 min at 4° C. Supernatant was removed and cells were washed by pre-cold PBS twice. 150 μl PBS was added to suspend the cells and signals were detected by FACS (Beckman, Cytoflex).

C5aR = C5aR (Homo sapiens (Human), UniProt P21730); assay: Calcium mobilization (U937/C5aR or HEK293/C5aR cells, FLIPR); assay type: cell-based; conditions: agonist human C5a at EC80, FLIPR
Sequence of C5aR (P21730 whole entry): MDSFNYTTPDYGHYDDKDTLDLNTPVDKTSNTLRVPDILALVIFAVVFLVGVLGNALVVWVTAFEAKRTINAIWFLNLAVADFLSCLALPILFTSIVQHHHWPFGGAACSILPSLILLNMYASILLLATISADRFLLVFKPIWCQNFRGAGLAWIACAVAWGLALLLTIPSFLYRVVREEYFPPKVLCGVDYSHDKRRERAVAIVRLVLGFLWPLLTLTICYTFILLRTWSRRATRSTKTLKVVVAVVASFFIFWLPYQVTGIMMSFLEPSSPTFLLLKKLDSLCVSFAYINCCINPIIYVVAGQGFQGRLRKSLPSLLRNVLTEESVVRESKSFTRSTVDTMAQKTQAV
Experimental: U937/C5aR cells or HEK293/C5aR cells were washed by PBS and suspended in growth media at the density of 1×10^6 cells/ml. […] to the 384-well plate and culture for overnight. Transfer 250 nl compound solution to the cell plate using Echo, incubate for 60 min. Cells were added with Fluo-4 Direct™ dye and incubate for 50 min at 37° C. 5% CO2 and 10 m at room temperature. Place the cell plate into […] (Molecular Devices). Transfer 10 μl of 5-fold EC80 concentrations of agonist human C5a to the cell plates.

Sequence of human C5a receptor (C5aR) (P21730 whole entry): as above

Compound | IC50 [1] | IC50 (C5aR)
Cc1cccc(F)c1C(=O)N1C2COC[C@@H]2C[C@H](C(=O)Nc2ccc3c(cnn3C)c2)[C@@H]1c1ccc(NC2CCOCC2)cc1 (relative stereo) [Compound 134, cis-1-(2-fluoro-6-methylbenzoyl)-N-(1-methyl-1H-indazol-5-yl)-2-(4-((tetrahydro-2H-pyran-4-yl)amino)phenyl)octahydrofuro[3,4-b]pyridine-3-carboxamide] | 2 to 5 µM | –
Cc1ccc(NC(=O)C2C[C@@H]3CCC[C@@H]3N(C(=O)c3c(C)cccc3F)C2c2ccc(NC3CCCC3)cc2)cc1C(F)(F)F (relative stereo) [Compound 155, cis-2-(4-(cyclopentylamino)phenyl)-1-(2-fluoro-6-methylbenzoyl)-N-(4-methyl-3-(trifluoromethyl)phenyl)octahydro-1H-cyclopenta[b]pyridine-3-carboxamide] | 0.5 to 2 µM | –
Cc1ccc(NC(=O)C2CC(O)CN(C(=O)c3c(C)cccc3F)C2c2ccc(NC3CCCC3)cc2)cc1C(F)(F)F (stereo not shown) [Compound 42, 2-(4-(cyclopentylamino)phenyl)-1-(2-fluoro-6-methylbenzoyl)-5-hydroxy-N-(4-methyl-3-(trifluoromethyl)phenyl)piperidine-3-carboxamide] | < 0.05 µM | –
Cc1cccc(F)c1C(=O)N1[C@@H]2CCC[C@@H]2C[C@H](C(=O)Nc2ccc3c(cnn3C3COC3)c2)[C@@H]1c1ccc(NC2CCCC2)cc1 [Compound 83, (2R,3S,4aR,7aR)-2-(4-(cyclopentylamino)phenyl)-1-(2-fluoro-6-methylbenzoyl)-N-(1-(oxetan-3-yl)-1H-indazol-5-yl)octahydro-1H-cyclopenta[b]pyridine-3-carboxamide] | 2 to 5 µM | –
Cc1cccc(F)c1C(=O)N1[C@@H]2CCC[C@@H]2C[C@H](C(=O)Nc2ccc3[nH]ncc3c2)[C@@H]1c1ccc(NC2CCCC2)cc1 [Compound 84, (2R,3S,4aR,7aR)-2-(4-(cyclopentylamino)phenyl)-1-(2-fluoro-6-methylbenzoyl)-N-(1H-indazol-5-yl)octahydro-1H-cyclopenta[b]pyridine-3-carboxamide] | < 0.05 µM | –
Cc1cccc(F)c1C(=O)N1[C@@H]2CCC[C@@H]2C[C@H](C(=O)Nc2ccc3c(cnn3Cc3ccccn3)c2)[C@@H]1c1ccc(NC2CCOCC2)cc1 [Compound 92, (2R,3S,4aR,7aR)-1-(2-fluoro-6-methylbenzoyl)-N-(1-(pyridin-2-ylmethyl)-1H-indazol-5-yl)-2-(4-((tetrahydro-2H-pyran-4-yl)amino)phenyl)octahydro-1H-cyclopenta[b]pyridine-3-carboxamide] | 2 to 5 µM | –
Cc1cccc(F)c1C(=O)N1[C@@H]2CCC[C@@H]2C[C@H](C(=O)Nc2ccc3ncccc3c2)[C@@H]1c1ccc(NC2CCOCC2)cc1 [Compound 95, (2R,3S,4aR,7aR)-1-(2-fluoro-6-methylbenzoyl)-N-(quinolin-6-yl)-2-(4-((tetrahydro-2H-pyran-4-yl)amino)phenyl)octahydro-1H-cyclopenta[b]pyridine-3-carboxamide] | 0.5 to 2 µM | –
Cc1cccc(F)c1C(=O)N1[C@@H]2CCC[C@@H]2C[C@H](C(=O)Nc2ccc3nn(C)cc3c2)[C@@H]1c1ccc(NC2CCOCC2)cc1 [Compound 97, (2R,3S,4aR,7aR)-1-(2-fluoro-6-methylbenzoyl)-N-(2-methyl-2H-indazol-5-yl)-2-(4-((tetrahydro-2H-pyran-4-yl)amino)phenyl)octahydro-1H-cyclopenta[b]pyridine-3-carboxamide] | 0.5 to 2 µM | –
Cc1cccc(F)c1C(=O)N1[C@@H]2CCC[C@@H]2C[C@H](C(=O)Nc2ccc3c(cnn3C3COC3)c2)[C@@H]1c1ccc(NC2CCOCC2)cc1 [Compound 99, (2R,3S,4aR,7aR)-1-(2-fluoro-6-methylbenzoyl)-N-(1-(oxetan-3-yl)-1H-indazol-5-yl)-2-(4-((tetrahydro-2H-pyran-4-yl)amino)phenyl)octahydro-1H-cyclopenta[b]pyridine-3-carboxamide] | 2 to 5 µM | –
Cc1cccc(F)c1C(=O)N1[C@@H]2CCC[C@@H]2C[C@H](C(=O)Nc2ccc3c(cnn3CCO)c2)[C@@H]1c1ccc(NC2CCOCC2)cc1 [Compound 102, (2R,3S,4aR,7aR)-1-(2-fluoro-6-methylbenzoyl)-N-(1-(2-hydroxyethyl)-1H-indazol-5-yl)-2-(4-((tetrahydro-2H-pyran-4-yl)amino)phenyl)octahydro-1H-cyclopenta[b]pyridine-3-carboxamide] | 2 to 5 µM | –
Cc1cccc(F)c1C(=O)N1[C@@H]2CCC[C@@H]2C[C@H](C(=O)Nc2ccc3c(cnn3CCN(C)C)c2)[C@@H]1c1ccc(NC2CCOCC2)cc1 [Compound 103, (2R,3S,4aR,7aR)-N-(1-(2-(dimethylamino)ethyl)-1H-indazol-5-yl)-1-(2-fluoro-6-methylbenzoyl)-2-(4-((tetrahydro-2H-pyran-4-yl)amino)phenyl)octahydro-1H-cyclopenta[b]pyridine-3-carboxamide] | 2 to 5 µM | –
Cc1cccc(F)c1C(=O)N1[C@@H]2CCC[C@@H]2C[C@H](C(=O)Nc2ccc3nn(CCO)cc3c2)[C@@H]1c1ccc(NC2CCOCC2)cc1 [Compound 104, (2R,3S,4aR,7aR)-1-(2-fluoro-6-methylbenzoyl)-N-(2-(2-hydroxyethyl)-2H-indazol-5-yl)-2-(4-((tetrahydro-2H-pyran-4-yl)amino)phenyl)octahydro-1H-cyclopenta[b]pyridine-3-carboxamide] | 2 to 5 µM | –
Cc1cccc(F)c1C(=O)N1[C@@H]2CCC[C@@H]2C[C@H](C(=O)Nc2ccc3nn(CCN(C)C)cc3c2)[C@@H]1c1ccc(NC2CCOCC2)cc1 [Compound 105, (2R,3S,4aR,7aR)-N-(2-(2-(dimethylamino)ethyl)-2H-indazol-5-yl)-1-(2-fluoro-6-methylbenzoyl)-2-(4-((tetrahydro-2H-pyran-4-yl)amino)phenyl)octahydro-1H-cyclopenta[b]pyridine-3-carboxamide] | 2 to 5 µM | –
Cc1cccc(F)c1C(=O)N1[C@@H]2CCC[C@@H]2C[C@H](C(=O)Nc2ccc3c(cnn3Cc3cccnc3)c2)[C@@H]1c1ccc(NC2CCOCC2)cc1 [Compound 107, (2R,3S,4aR,7aR)-1-(2-fluoro-6-methylbenzoyl)-N-(1-(pyridin-3-ylmethyl)-1H-indazol-5-yl)-2-(4-((tetrahydro-2H-pyran-4-yl)amino)phenyl)octahydro-1H-cyclopenta[b]pyridine-3-carboxamide] | 2 to 5 µM | –
Cc1ccc(NC(=O)[C@H]2CCCN[C@H]2c2ccc(N(c3ncnc4ccccc34)C3CCCC3)cc2)cc1C(F)(F)F [Compound 177, (2R,3S)-2-(4-(cyclopentyl(quinazolin-4-yl)amino)phenyl)-N-(4-methyl-3-(trifluoromethyl)phenyl)piperidine-3-carboxamide] | – | 2 to 10 µM
Cc1ccc(NC(=O)[C@H]2CCCN[C@H]2c2ccc(N(c3ncnc4cnccc34)C3CCCC3)cc2)cc1C(F)(F)F [Compound 178, (2R,3S)-2-(4-(cyclopentyl(pyrido[3,4-d]pyrimidin-4-yl)amino)phenyl)-N-(4-methyl-3-(trifluoromethyl)phenyl)piperidine-3-carboxamide] | – | 2 to 10 µM
Cc1ccc(NC(=O)[C@H]2CCCN[C@H]2c2ccc(N(c3nncc4ccccc34)C3CCCC3)cc2)cc1C(F)(F)F [Compound 179, (2R,3S)-2-(4-(cyclopentyl(phthalazin-1-yl)amino)phenyl)-N-(4-methyl-3-(trifluoromethyl)phenyl)piperidine-3-carboxamide] | – | 2 to 10 µM
Cc1ccc(CNC(=O)[C@H]2C[C@H]3CCC[C@H]3N(C(=O)c3c(C)cccc3F)[C@H]2c2ccc(NC3CCCC3)cc2)cc1C(F)(F)F [Compound 185, (2R,3S,4aR,7aR)-2-(4-(cyclopentylamino)phenyl)-1-(2-fluoro-6-methylbenzoyl)-N-(4-methyl-3-(trifluoromethyl)benzyl)octahydro-1H-cyclopenta[b]pyridine-3-carboxamide] | – | 2 to 10 µM
(cis-3-(6-chloro-1,2,3,4-tetrahydroisoquinoline-2-carbonyl)-2-(4-(cyclopentylamino)phenyl)octahydro-1H-cyclopenta[b]pyridin-1-yl)(2-fluoro-6-methylphenyl)methanone [Compound 72] | – | 2 to 10 µM

Source: patent US20240043439A1, “COMPOUNDS AS C5AR INHIBITORS” (Kira Pharmaceuticals (Suzhou) Ltd., priority 2020, published 2024)
